“Also recorded” adds a separate entry of the source. Where two headings read alike, the source gives them in different places.
How the values were obtained:
[1] = system: primary fetal rat osteoblasts; test: Proliferation (cell number, [3H]-thymidine incorporation) of fetal rat osteoblast-like cells; assay type: cell-based
Procedure: Osteoblast-Like Cell Culture. Osteoblasts were isolated from 20 day fetal rat calvariae as previously described (Cornish et al. (1999) American Journal of Physiology Endocrinology & Metabolism 277: E779-E783). Briefly, calvariae were excised and the frontal and parietal bones, free of suture and periosteal tissue, were collected. The calvariae were sequentially digested using collagenase and the cells from digests 3 and 4 were collected, pooled and washed. Cells were grown to confluence and then subcultured into 24 well plates. Cells were growth arrested in minimum essential medium (MEM)/0.1% bovine serum albumin for 24 h. Fresh media and experimental compounds were added for a further 24 h. Cells were pulsed with tritiated-thymidine two hours before the end of the experimental incubation. The effect of preptin on proliferation of fetal rat osteoblast-like cells was first assessed by the measurement of cell numbers. The effect of preptin on DNA synthesis in osteoblasts was then assessed by the measurement of [^3H]-thymidine incorporation into isolated fetal rat osteoblast-like cells. There were 6 wells in each group and each experiment was repeated 3 or 4 times.

[2] = system: murine neonatal calvarial organ culture; test: Thymidine incorporation in murine neonatal calvarial organ culture; assay type: cell-based, mouse; details: FIG. 3 (rat preptin, two concentrations)
[3] = system: murine neonatal calavarial organ culture system; test: Bone resorption in murine neonatal calvarial organ culture; assay type: cell-based, mouse; details: data not shown
primary rat osteoblasts = test: TUNEL assay of apoptosis in serum-deprived primary rat osteoblasts; assay type: cell-based; details: 10^−8 M; apoptosis induced by serum deprivation; 18 h; FIG. 6
Procedure: Immunoblotting (Cell Signalling Methods). Primary rat osteoblasts prepared as described above were seeded in 6-well tissue culture plates at an initial density of 5×10^4 cells/mL in MEM 5% FCS, and grown to 80-90% confluence. After serum starvation overnight, cells were treated at room temperature with test substances in MEM 0.1% BSA. In experiments designed to determine the effect of inhibitors of signal transduction on preptin-induced p42/44 MAP kinase phosphorylation, the cells were pre-treated with the inhibitor for 30 min prior to addition of test substances. The exception was pertussis toxin, which was added 18 h prior to test substances. […] The lysates were briefly vortexed, clarified by centrifugation at 13,000 rpm at 4° C., then stored at −70° C. until analyzed. Protein content of the cell lysates was measured using the DC protein assay (BioRad, Hercules, Calif.). […] Incubation with the HRP-conjugated secondary antibody was for 1 h at room temperature, and the membranes were analyzed by ECL. […] Apoptosis in cultures of primary rat osteoblasts was assessed using the TUNEL method (DeadEnd™, Promega, Madison, Wis.) according to the manufacturer's instructions. […] After counterstaining with hematoxylin, the number of apoptotic nuclei per microscopic field was counted and expressed as a proportion of that observed in the cells exposed to serum starvation throughout the entire treatment period. […]

[4] = system: long-term osteoblast cultures; test: Osteoblast differentiation, mineralized bone nodules in long-term osteoblast cultures; assay type: cell-based; details: 10^−8M
[5] = system: sexually mature male mice; test: Local subcutaneous injection over the hemicalvaria, histomorphometry; assay type: in vivo; details: for Bone Area, Mean ± Std Error: twice daily s.c. over right hemicalvaria; for Bone Area, Mean ± Std Error / % Mineralizing Surface/Total Bone Surface, Mean ± Std Error: 5 days; for % Mineralizing Surface/Total Bone Surface, Mean ± Std Error: twice daily s.c.
Procedure: Three groups of sexually mature male mice were given twice daily subcutaneous injections over the right hemicalvaria for 5 consecutive days. Two groups received one of 2 doses of preptin (0.825 μg or 8.25 μg per injection), and a further […] received vehicle. The animals were sacrificed 1 week following the last injection. Fluorochrome labels were injected subcutaneously at the base of the tail on days 1 (calcein), 5 (alizarin red) and 14 (calcein) to measure dynamic histomorphometric indices (such as, extent of mineralizing surface). Calvariae were excised, fixed in 10% neutral-buffered formalin, dehydrated and embedded in methylmethacrylate resin. Sections were cut, mounted on gelatin-coated slides, and histomorphometric indices measured using image analysis.

[6] = system: isolated, perfused rat pancreas; details: infusion into isolated, Buchanan et al. 2001; cited from earlier work
[7] = system: murine bone marrow cultures; test: Osteoclastogenesis assay in murine bone marrow cultures (TRAP-positive multinucleated cells); assay type: cell-based, mouse; details: various concentrations; 7 days; with 1α,25-dihydroxyvitamin D3; FIG. 4
Procedure: The effects of preptin on the development of osteoclasts was also examined. To assess osteoclast development, bone marrow is obtained from the long bones of normal mice, aged 4-6 weeks and cultured. Non-adherent cells are removed and the cultures are grown in the presence of 1α,25-dihydroxyvitamin D3 throughout the experiment. The cultures were maintained for 7 days and the number of tartrate-resistant acid phosphatase-positive multinucleated cells was assessed. An osteoclastogenesis assay was performed with murine bone marrow cultures in the presence of various concentrations of rat preptin. The number of tartrate-resistant acid phosphatase (TRAP)-positive multinucleated cells was assessed (FIG. 4).

[8] = primary osteoblasts pre-treated with inhibitor, FIG. 5A, 5B
[9] = high dose, 16.5 micrograms daily for five days, local s.c. injection

For pertussis toxin, the “effect of inhibitor pre-treatment on the proliferative effects of preptin” value (“effect of inhibitor pre-treatment” below) [1, 8] was “blocked”.

In the case of `N#CC(=C(/N)Sc1ccccc1N)/C(C#N)=C(\N)Sc1ccccc1N` [U-0126], the “effect of inhibitor pre-treatment” value [1] is reported as “blocked”.

With “preptin: 34-amino acid peptide corresponding to Asp69-Leu102 of proinsulin-like growth factor II; species form not always stated” the “concentrations stimulating proliferation (cell number and DNA synthesis)” value ([1]; dose-dependent, primary fetal rat osteoblasts and osteoblast-like cell lines, 24 h, FIGS. 1 and 2 (rat and human preptin)) was > 10^−11 M, the thymidine incorporation [2] was “stimulated” and the bone resorption [3] was “did not affect bone resorption”. For the same compound, the “apoptosis, treatment/control ratio” value (primary rat osteoblasts) was 0.78±0.08, the “osteoblast differentiation, number of mineralized bone nodules” value [4] was “significantly increasing the number of mineralized bone nodules” and the “Bone Area, Mean ± Std Error” value ([5]; high dose (8.25 μg per injection), P = 0.013 vs control 1.028 ± 0.023) was “*1.084 ± 0.017”. The “% Mineralizing Surface/Total Bone Surface, Mean ± Std Error” value ([5]; high dose (8.25 μg per injection), P = 0.046 vs control 1.048 ± 0.013) was “*1.119 ± 0.032%”, the “bone area compared to control (in words)” value [5, 9] was “significant increase; also recorded: increased” and the “mineralizing surface compared to control (in words)” value [5, 9] was “significant increase; also recorded: increased”. For the same compound, the “Bone Area, Mean ± Std Error” value ([5]; low dose (0.825 μg per injection), control 1.028 ± 0.023) was 1.083 ± 0.027, the “% Mineralizing Surface/Total Bone Surface, Mean ± Std Error” value ([5]; low dose (0.825 μg per injection), control 1.048 ± 0.013) was 1.065 ± 0.033% and the “second phase of insulin secretion” value [6] was “significant increase”.

In the case of “DVSTSQAVLPDDFPRYPVGKFFKFDTWRQSAGRL (Rattus) [rat preptin]”, the “osteoclast development (number of TRAP-positive multinucleated cells)” value [7] is reported as “did not affect osteoclast development”.

With `COc1cccc(-c2cc(=O)c3ccccc3o2)c1N` [PD-98059] the “effect of inhibitor pre-treatment” value [1, 8] was “blocked”.

— patent US20060116318A1, “Preptin methods of use” (priority 2002, published 2006)
